Experimental data from patent publication US9937240B2, “Peptide having fibrosis inhibitory activity and composition containing same” (GemVax & KAEL Co., Ltd., priority 2014, dated 2018).

Legend:
AsPC1 cells = test: AsPC1 cell xenograft model: fibrosis, cancer cells and mouse weight; format: in vivo, nude mice; conditions: for fibrosis (collagen parts stained in blue color in cancer tissue): administration starting 10 days after inoculation, PEP1 2 mg/kg once a day s.c.
Method: To verify in vivo anticancer effects of PEP1 and gemcitabine on pancreatic cancer, xenograft experiments were performed using AsPC1 cell lines. A xenografting method used herein is as follows.
Reagents and materials used for the experiment are as follows. After powdery PEP1 was dissolved in 0.2 μm filtered sterile water, aliquots were stored at −70° C. and then dissolved before use, and gemcitabine was dissolved in 100% saline. 5-fluorouracil was dissolved in DMSO.
AsPC1 cell lines (Cell #6×10^5 cells/[…]), which were cell lines used in the experiment, are human pancreatic cancer metastatic cells purchased from the American Type Cell Culture (ATCC, Rockville, Md.).
AsPC1 cells were injected into each of nude mouse experiment groups (1) to (4).
The cultured 5×10^6 AsPC1 cells were subcutaneously injected into nude mice (BALB/c-nu/nu nude mice, purchased from Joongang Laboratory animal, Seoul, Korea). The injection was performed until cancer was grown to a size of 100 mm^3 (about 10 days). Following cancer engraftment, the mice were divided into groups, each group having a similar average weight, and then either or both of gemcitabine and Pep1 were subcutaneously and intraperitoneally injected into the mice according to the conditions for each of the four experiment groups below (refer to FIG. 1). Cancer volume was measured with calipers and calculated by the following formula [width^2×length×0.52].
After grafting, either or both of Pep1 and gemcitabine were administered to each of the four experiment groups.
(1) AsPC1 grafting control
(2) AsPC1 grafting+PEP1 2 mg/kg (once a day, s.c) administered group
After then, weight of each mouse was quantified every time. Also, cancer tissue sample preparation and cell proliferation marker (PCNA)/apoptosis marker (TUNEL) staining were performed.
For analyses of experiment results, averages between several experiment groups was assessed by a student's t-test.

Smad2 = test: TGF-β inhibition in HepG2 cell lines, qRT-PCR of Smad2 mRNA; format: cell-based, human; conditions: HepG2, 10 ng/ml TGF-β1; PEP1 1, 5 and 10 μM; 48-hour culture; reference gene GAPDH
Method: (§1) To verify the TGF-β inhibitory effect of PEP1, which is considered as the main cause of fibrosis, an experiment for confirming a TGF-β signaling inhibiting action in HepG2 cell lines was performed as follows.
(§2) Reagents and materials used in the experiment are as follows. After powdery PEP1 was dissolved in 0.2 μm filtered sterile water, aliquots were stored at −70° C. and then dissolved before use. As a cell line, HepG2 (ATCC HB-8065; American Type Culture Collection) was used, and recombinant human TGF-β1 was dissolved in 4 mM HCl, thereby preparing a 10 μg/mL stock. SB431542 (Sigma) used as a positive control was prepared in a 10 mM stock.
(§3) 2×10^6 HepG2 cells (ATCC HB-8065) were seeded into a 60 mm petri-dish and cultured in a CO2 incubator for 16 hours. Afterward, media were transferred to serum-free media (SFM), and then the cells were further cultured for 24 hours. […]
(§4) RNA was extracted from peptide-treated cells using an RNEASY® Plus Mini Kit (Qiagen) (RNA extraction kit) according to the manufacture's protocol. The extracted RNA was quantified, and then cDNA was synthesized from 1 μg of total RNA using a reverse transcription system (Promega). […] As TGF-β-related biomarkers, mRNA expression of fibronectin (FN), Smad2 and Smad4 were analyzed, and as a reference gene, GAPDH was used. […]

Smad4 = test: TGF-β inhibition in HepG2 cell lines, qRT-PCR of Smad4 mRNA; format: cell-based, human; conditions: HepG2, 10 ng/ml TGF-β1; PEP1 1, 5 and 10 μM; 48-hour culture; reference gene GAPDH
Method: as §1, §2, §3, §4

[1] = system: Normal human epidermal keratinocytes (NHEKs); test: Cell differentiation of radiation-exposed NHEK cell lines; format: cell-based; conditions: 1 mM of PEP1, 6 Gy ionizing radiation, cultured 10 days
Method: To confirm PEP1 effects on fibrosis induced by radiation exposure for anticancer treatment and other tumor treatments, an experiment for confirming a TGF-β inhibitory effect of PEP1 in radiation-exposed NHEKs was performed.
(§5) PEP1 synthesized according to Example 1 and a placebo (sham) as a control were prepared. Normal human epidermal keratinocytes (NHEKs) were cultured in a monolayer to be used for a radiation exposure experiment. For the radiation exposure experiment, ionized radiation was used at an intensity of 6 Gy.
To examine the cell differentiation of NHEK cell lines according to radiation exposure, NHEKs were treated with each of the placebo and 1 mM of PEP1, and then divided into radiation-exposed groups and non-exposed groups, followed by culturing for 10 days (refer to FIG. 13).

GRHL2 = test: Biomarker expression in radiation-exposed NHEKs: GRHL2; format: cell-based, human; conditions: 1 mM of PEP1, 10 days after radiation exposure (6 Gy)
Method: as §5
(§6) Also, to examine the change in expression levels of biomarkers for the NHEK cell lines due to the radiation exposure, the NHEKs were treated with each of the placebo and 1 mM of PEP1 and divided into non-exposed groups (−) and radiation-exposed groups (+), and then expression levels of the biomarkers were examined at day 1 and day 10 after the radiation exposure (refer to FIG. 14). In measurement of the expression levels of the biomarkers, GAPDH was used as a reference control.
(§7) Western blotting procedures were as follows. Peptide-treated cells were washed with PBS twice, collected into a 1.5 mL centrifuge tube using a cell scraper, followed by centrifugation (1,000 rpm, 4° C., 2 minutes). After removal of the obtained supernatant, 100 μL of RIPA buffer was added to the NHEKs. […]
(§8) […] of protein was transferred to a PVDF membrane (Millipore) by 8% sodium dodecyl sulfate-polyacrylamide gel electrophoresis (SDS-PAGE). […] Afterward, ECL detection (Amersham Pharmacia Biotech) was performed, and obtained images were analyzed using an image analyzer (GE Healthcare, IMAGEQUANT™ LAS 4000).

p63 = test: Biomarker expression in radiation-exposed NHEKs: p63; format: cell-based, human; conditions: 1 mM of PEP1, 10 days after radiation exposure (6 Gy)
Method: as §5, §6, §7, §8

N-Cad = test: Biomarker expression in radiation-exposed NHEKs: N-Cad; format: cell-based, human; conditions: 1 mM of PEP1, after radiation exposure (6 Gy)
Method: as §5, §6, §7, §8

P-Akt = test: Biomarker expression in radiation-exposed NHEKs: P-Akt; format: cell-based, human; conditions: 1 mM of PEP1, after radiation exposure (6 Gy)
Method: as §5, §6, §7, §8

NHEK cell lines = test: In vitro radiation-induced premature senescence (RIPS) marker expression in NHEKs; format: cell-based, human; conditions: radiation 0 to 10 Gy, qRT-PCR, western blotting, immunofluorescence staining
Method: (§9) PEP1 synthesized according to Example 1 and a placebo (sham) used as a control were prepared. NHEKs were cultured in a monolayer to prepare an in vitro radiation exposure experiment. For in vitro, in situ, and in vivo radiation exposure experiments, ionized radiation was used at various intensities ranging from 0 to 10 Gy (0, 2, 4, 6, 8, and 10 Gy).
The expression level of each marker was measured using qRT-PCR, western blotting, and immunofluorescence staining. For the measurement of the levels, senescence-associated β-galactosidase (SA β-Gal), p16INK4A, p-p53Ser15, p-ATM, γ-H2AX, 53BP1,H3K9me3, HP1γ, and HMGA2 were used as markers.

oral mucositis model = test: In vivo oral mucositis model, radiation-induced tongue ulcer; conditions: C3H mice, PEP1 1 mg/kg intraperitoneally, 6 Gy IR for five consecutive days
Method: as §9
(§10) Meanwhile, experimental animals were divided into two animal models. The first model was an oral mucositis model, which was prepared by inducing an ulcer to the tongue of each C3H mouse by exposing the head and the neck to radiation (6 Gy, IR) for 5 straight days. The second model is a dermal fibrosis model, which was prepared by inducing local scleroderma by subcutaneously injecting 0.1 cc of a dilution of bleomycin which was known as the cause of pulmonary fibrosis in a 0.9% NaCl aqueous solution at a concentration of 0.5 mg/ml once a day for 24 to 28 days.
For the in vivo experiment, first, in the first oral mucositis model, C3H mice were divided into groups, each intraperitoneally treated with a placebo or PEP1 to give a final dose of 1 mg/kg and exposed to radiation (6 Gy, IR) for five consecutive days to induce a tongue ulcer corresponding to an oral mucositis. Ten days later, the mice were sacrificed to collect tongue tissue, which was stained with toluidine blue and by H&E staining, to perform biopsy. […]

dermal fibrosis model = test: In vivo dermal fibrosis model, bleomycin-induced scleroderma; conditions: C3H mice, PEP1 50 mg/kg intraperitoneally, bleomycin subcutaneously for 24 to 28 days
Method: as §10, with “28 days. Meanwhile, in the second dermal fibrosis model, C3H mice were divided into groups, each intraperitoneally treated with a placebo or PEP1 to give the final dose of 50 mg/kg, and subcutaneously treated with bleomycin at the concentrations mentioned in the preparation of the experimental animals for 24 to 28 days. 28 days later, the mice were sacrificed to detect scleroderma, followed by an experiment for examining fibrosis diffusion using Masson's trichrome staining.” for “28 days.”

fibronectin (FN) = test: TGF-β inhibition in HepG2 cell lines, qRT-PCR of fibronectin mRNA; format: cell-based, human; conditions: HepG2, TGF-β1 treated; positive control
Method: as §1, §2, §3, §4

[2] = nude mice inoculated with AsPC1 cells, gemcitabine 125 mg/kg once every third day i.p.

| Molecule | fibrosis (collagen parts stained in blue color in cancer tissue) (AsPC1 cells; [2]) | Smad2 mRNA expression (Smad2) | Smad4 mRNA expression (Smad4) | cell differentiation (fibrosis development) after radiation exposure [1] | GRHL2 expression level (GRHL2) | p63 expression level (p63) | N-Cad expression level (N-Cad) | P-Akt expression level (degree of cell survival) (P-Akt) | radiation-induced premature senescence (RIPS), indicated by marker expression (NHEK cell lines) | defensive effect against exposure to radiation, indicated by biopsy (oral mucositis model) | defensive effect against induction of tissue fibrosis, indicated by biopsy (dermal fibrosis model) | weight of a mouse (AsPC1 cells; day 20 after the administration, compared between the four experiment groups) | cancer cells (parts stained in red color) (AsPC1 cells; [2]) | fibronectin inhibition ratio (fibronectin (FN)) |
| --- | --- | --- | --- | --- | --- | --- | --- | --- | --- | --- | --- | --- | --- | --- |
| EARPALLTSRLRFIPK (listed as Homo sapiens) [PEP1, telomerase-derived peptide, which consists of 16 amino acids; position [611-626] on telomerase] | fibrosis was considerably inhibited | concentration-dependently inhibited | concentration-dependently inhibited | hardly showed differentiation | increased | increased | decreased | increased | RIPS inhibitory effect | defensive effects | defensive effects |  |  |  |
| Nc1ccn([C@@H]2O[C@H](CO)[C@@H](O)C2(F)F)c(=O)n1 [gemcitabine] | fibrosis was considerably developed |  |  |  |  |  |  |  |  |  |  | the smallest | cancer cells were killed |  |
| NC(=O)c1ccc(-c2nc(-c3ccc4c(c3)OCO4)c(-c3ccccn3)[nH]2)cc1 [SB431542] |  |  |  |  |  |  |  |  |  |  |  |  |  | 60.7% |
